From patent US20030134859A1 (SANKYO COMPANY, LIMITED, priority 2000, published 2003)

Legend:
TNF-α production = experiment: Inhibitory activity against cytokine (TNF-α) production in LPS-stimulated RAW264.7 cells; format: cell-based, mouse; details: 1 μM test compound, LPS 10 ng/mL; for inhibition at 1 µM: Mus musculus, RAW264.7, 15 h
Outline: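 Mouse RAW264.7 macrophages (5,000 cells/well) stimulated with 10 ng/mL LPS (final) and treated with test compound at 1 μM final for 15 h at 37 °C. Supernatant mouse TNF-α measured by ELISA; % inhibition = 100−(A−B)/(C−B)×100, using unstimulated and LPS-only controls.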

Rat white adipocytes = experiment: Stimulation of differentiation of the adipocytes (Oil Red O); format: cell-based; details: 100 nM test compound, 5 days, Oil Red O ABS550, control = 100%, blank = 0%, Table 7; for activity at 0.1 µM: Rattus norvegicus, Adipocyte, 120 h, read-out: Rate of Differentiation (%)
Outline: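 Rat white adipocytes, 5,000 cells/well, cultured 5 days in differentiation-inducing medium with test compound at final 100 nM (0.1% DMSO). Cells fixed, stained with Oil Red O, dye extracted in DMSO and read at 550 nm; differentiation rate expressed relative to vehicle control (100%) and cell-free blank (0%).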

Cc1csc(NC(=O)c2cc([N+](=O)[O-])ccc2Cl)n1 [Example 3, N-(4-Methylthiazol-2-yl)-(2-chloro-5-nitrophenyl)carboxamide]
inhibition at 1 µM (TNF-α production): 17%
activity at 0.1 µM (Rat white adipocytes): 126%

O=C(Nc1nc2ccc(Cc3ccc(F)cc3)cc2s1)c1cc([N+](=O)[O-])ccc1Cl [Example 90, N-[6-(4-Fluorobenzyl)benzothiazol-2-yl]-(2-chloro-5-nitrophenyl)carboxamide]
inhibition at 1 µM (TNF-α production): 19.4%
activity at 0.1 µM (Rat white adipocytes): 131%

O=C(Nc1ccc(-c2ccc(O)cc2)cc1)c1cc([N+](=O)[O-])ccc1Cl [Example 135, N-[4-(4-Hydroxyphenyl)phenyl]-2-(chloro-5-nitrophenyl)carboxamide]
Inhibitory Activity (%) against TNF-α production (TNF-α production; 15 hr): 16.6%
Rate of Differentiation (%) (Rat white adipocytes): 128.0%
